Measured values taken from US20250205268A1, “TREATMENT OF VIRUSES WITH ANTIVIRAL NUCLEOSIDES” (priority 2021, published 2025).
Where two headings read alike, the source gives them in different places.

Assays:
[1] = format: in vivo, human; conditions: adults; age, sex, body size, food, mild-to-moderate renal or mild hepatic impairment
Description: A population pharmacokinetic (popPK) analysis for Compound A exposure was conducted using 4202 NHC plasma concentrations collected in 1207 individuals from a phase 1 study in healthy participants, a phase 2a study in non-hospitalized participants with COVID-19, a Phase 2 study in hospitalized participants with COVID-19, and a Phase 2/3 study in non-hospitalized participants with COVID-19. All studies were randomized, double-blind, placebo-controlled studies of safety, tolerability, and PK of Compound A after oral administration.

SARS-CoV-2 [2] = system: SARS-CoV-2
[3] = format: in vivo; conditions: nonclinical studies
SARS-CoV-2 [4] = system: SARS-CoV-2; remark: listed apart in the source
[5] = Part 2 interim, safety population

CC(C)C(=O)OC[C@H]1O[C@@H](n2ccc(NO)nc2=O)[C@H](O)[C@@H]1O [Compound A, {(2R,3S,4R,5R)-3,4-dihydroxy-5-[4-(hydroxyimino)-2-oxo-3,4-dihydropyrimidin-1 (2H)-yl]oxolan-2-yl}methyl 2-methylpropanoate]
need for dose adjustment [1]: without dose adjustment
hematological, pancreatic, or hepatic parameters (SARS-CoV-2 [2]; Part 1, as a function of dose or treatment): no clinically meaningful abnormalities
dose-limiting toxicity (SARS-CoV-2 [2]; highest dose (800 mg), eDMC review of IA2 data): no dose-limiting toxicity was observed
SARS-CoV-2 VL compared with placebo (SARS-CoV-2 [2]; in vivo): reduces the SARS-CoV-2 VL compared with placebo
tolerability (SARS-CoV-2 [2]; non-hospitalized participants in Part 1): well-tolerated
pancreatic toxicity (pathology changes in the pancreas) [3]: No test-article related pathology changes in the pancreas
AE: COVID-19 pneumonia (Part 2 interim): 4.9%
AE: bacterial pneumonia (Part 2 interim): 2.1%
AE: worsening COVID-19 (Part 2 interim): 8.0%
tolerability (Part 2 interim analysis): well-tolerated
Died [5]: (0.0) %
Estimated difference vs placebo: Died [5]: −2.6%
adverse event: Covid-19 pneumonia (final): 6.3%
adverse event: bacterial pneumonia (final): 2.0%
adverse event: worsening of Covid-19 (final): 7.9%
Death (final, safety population): 2 (0.3) number (percent)
Estimated Difference (95% CI) vs placebo: Death (final, safety population): −1.4 (−2.7 to −0.5) percentage points
AE: diarrhea (human, in vivo): 3.9%
AE: nausea (human, in vivo): 2.8%
AE: respiratory failure (human, in vivo): 1.0%
At least 1 serious AE (human, in vivo): (7.3) %
At least 1 serious drug-related AE (human, in vivo): (0.0) %
Discontinued the assigned regimen because of a serious adverse event (human, in vivo): 5 (0.7) number (percent)
Discontinued the assigned regimen because of a serious adverse event related to the assigned regimen (human, in vivo): 0 number (percent)
Discontinued the assigned regimen because of an adverse event (human, in vivo): 10 (1.4) number (percent)
Discontinued the assigned regimen because of an adverse event related to the assigned regimen (human, in vivo): 4 (0.6) number (percent)
Discontinued treatment due to a drug-related AE (human, in vivo): (0.8) %
Discontinued treatment due to a serious AE (human, in vivo): (0.3) %
Discontinued treatment due to a serious drug-related AE (human, in vivo): (0.0) %
Discontinued treatment due to an AE (human, in vivo): (1.3) %
Estimated Difference (95% CI) vs placebo: discontinued because of a serious adverse event (human, in vivo): −1.2 (−2.5 to 0.0) percentage points
Estimated Difference (95% CI) vs placebo: discontinued because of a serious adverse event related to the assigned regimen (human, in vivo): 0.0 (−0.5 to 0.5) percentage points
Estimated Difference (95% CI) vs placebo: discontinued because of an adverse event (human, in vivo): −1.4 (−3.1 to 0.1) percentage points
Estimated Difference (95% CI) vs placebo: discontinued because of an adverse event related to the assigned regimen (human, in vivo): 0.1 (−0.8 to 1.1) percentage points
Estimated Difference (95% CI) vs placebo: ≥1 Adverse event (human, in vivo): −2.5 (−7.4 to 2.3) percentage points
Estimated Difference (95% CI) vs placebo: ≥1 Adverse event related to the assigned regimen (human, in vivo): −0.4 (−3.3 to 2.5) percentage points
Estimated Difference (95% CI) vs placebo: ≥1 Serious adverse event (human, in vivo): −2.7 (−5.6 to 0.2) percentage points
Estimated Difference (95% CI) vs placebo: ≥1 Serious adverse event related to the assigned regimen (human, in vivo): −0.1 (−0.8 to 0.4) percentage points
Estimated difference vs placebo: At least 1 AE (human, in vivo): −4.6%
Estimated difference vs placebo: At least 1 drug-related AE (human, in vivo): 1.4%
Estimated difference vs placebo: At least 1 serious AE (human, in vivo): −6.7%
Estimated difference vs placebo: At least 1 serious drug-related AE (human, in vivo): 0.0%
Estimated difference vs placebo: Discontinued treatment due to a drug-related AE (human, in vivo): −0.0%
Estimated difference vs placebo: Discontinued treatment due to a serious AE (human, in vivo): −2.1%
Estimated difference vs placebo: Discontinued treatment due to a serious drug-related AE (human, in vivo): 0.0%
Estimated difference vs placebo: Discontinued treatment due to an AE (human, in vivo): −2.1%
adverse event related to the trial regimen: diarrhea (human, in vivo): 1.7%
adverse event related to the trial regimen: dizziness (human, in vivo): 1.0%
adverse event related to the trial regimen: nausea (human, in vivo): 1.4%
adverse event: diarrhea (human, in vivo): 2.3%
drug-related AE: diarrhea (human, in vivo): 3.1%
drug-related AE: nausea (human, in vivo): 2.3%
participants with adverse events considered related to the trial regimen (human, in vivo): 8.0%
≥1 Adverse event (human, in vivo): 216 (30.4) number (percent)
≥1 Adverse event related to the assigned regimen (human, in vivo): 57 (8.0) number (percent)
≥1 Serious adverse event (human, in vivo): 49 (6.9) number (percent)
≥1 Serious adverse event related to the assigned regimen (human, in vivo): 0 number (percent)
hematological laboratory tests (in vivo): no clinically significant abnormalities
liver parameters (in vivo): No clinically significant abnormalities in liver parameters
participants meeting prespecified criteria for platelets <50,000/μL or potential drug-induced liver injury (in vivo): No participants in the Compound A group met prespecified criteria
participants meeting prespecified criteria for postbaseline platelet count below 50,000 per microliter (in vivo): One participant
tolerability (SARS-CoV-2 [4]; 5-day course up to 800 mg twice daily): well tolerated
Median time to sustained recovery (SARS-CoV-2 [4]; all arms, hospitalized): 9 days
day 29 recovery rates (SARS-CoV-2 [4]; all arms, hospitalized): 81.5%-85.2%
hematologic toxicity based on prespecified adverse events (SARS-CoV-2 [4]; all doses): no evidence of hematologic toxicity
clinical benefit (SARS-CoV-2 [4]; hospitalized patients with COVID-19): clinical benefit was not observed
participants with undetectable SARS-CoV-2 RNA at day 10, more than placebo (SARS-CoV-2 [4]; participants with ≤5 days since sign/symptom onset): 14.3%-36.4%
